According to PubChem BioAssay (NCI):
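Results reflect a 48-hour exposure of cells in 96-well plates to compound at five concentrations. GI50: concentration for 50% inhibition of growth. Definition used: TGI = concentration required for complete inhibition of growth.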

Columns and labels:
Experiment in all cases: NCI tumour cell line growth inhibition, 48 h
MOLT-4 leukemia = test system: MOLT-4 leukemia
UO-31 renal = test system: UO-31 renal
HOP-62 NSCLC = test system: HOP-62 NSCLC
KM12 colon = test system: KM12 colon
CCRF-CEM leukemia = test system: CCRF-CEM leukemia
NCI/ADR-RES ovarian = test system: NCI/ADR-RES ovarian
SNB-19 CNS = test system: SNB-19 CNS
EKVX NSCLC = test system: EKVX NSCLC
RPMI-8226 leukemia = test system: RPMI-8226 leukemia
UACC-257 melanoma = test system: UACC-257 melanoma
LOX IMVI melanoma = test system: LOX IMVI melanoma
K-562 leukemia = test system: K-562 leukemia
SF-268 CNS = test system: SF-268 CNS
HOP-92 NSCLC = test system: HOP-92 NSCLC
BT-549 breast = test system: BT-549 breast
SK-MEL-5 melanoma = test system: SK-MEL-5 melanoma
HCC-2998 colon = test system: HCC-2998 colon
HCT-116 colon = test system: HCT-116 colon
MDA-MB-468 breast = test system: MDA-MB-468 breast
U251 CNS = test system: U251 CNS
HCT-15 colon = test system: HCT-15 colon
MCF7 breast = test system: MCF7 breast
T-47D breast = test system: T-47D breast
SF-295 CNS = test system: SF-295 CNS
COLO 205 colon = test system: COLO 205 colon
NCI-H226 lung = test system: NCI-H226 lung
SK-OV-3 ovarian = test system: SK-OV-3 ovarian
ACHN renal = test system: ACHN renal
MALME-3M melanoma = test system: MALME-3M melanoma
SNB-75 CNS = test system: SNB-75 CNS
SK-MEL-2 melanoma = test system: SK-MEL-2 melanoma
HS 578T breast = test system: HS 578T breast
A549 NSCLC = test system: A549 NSCLC
UACC-62 melanoma = test system: UACC-62 melanoma
IGROV1 ovarian = test system: IGROV1 ovarian
TK-10 renal = test system: TK-10 renal
OVCAR-4 ovarian = test system: OVCAR-4 ovarian
HT29 colon = test system: HT29 colon
CAKI-1 renal = test system: CAKI-1 renal
OVCAR-5 ovarian = test system: OVCAR-5 ovarian
SW-620 colon = test system: SW-620 colon
MDA-MB-231 breast = test system: MDA-MB-231 breast
M14 melanoma = test system: M14 melanoma
OVCAR-3 ovarian = test system: OVCAR-3 ovarian
OVCAR-8 ovarian = test system: OVCAR-8 ovarian
DU-145 prostate = test system: DU-145 prostate
SF-539 CNS = test system: SF-539 CNS
NCI-H460 lung = test system: NCI-H460 lung
PC-3 prostate = test system: PC-3 prostate
HL-60(TB) leukemia = test system: HL-60(TB) leukemia
NCI-H522 lung = test system: NCI-H522 lung
RXF 393 renal = test system: RXF 393 renal
SR leukemia = test system: SR leukemia
NCI-H23 lung = test system: NCI-H23 lung
786-0 renal = test system: 786-0 renal
SN12C renal = test system: SN12C renal
A498 renal = test system: A498 renal
SK-MEL-28 melanoma = test system: SK-MEL-28 melanoma
MDA-MB-435 = test system: MDA-MB-435

O=C(COc1ccc(NC(=O)Nc2ccc(Cl)c(Cl)c2)cc1)N=Nc1c(O)[nH]c2ccc(Br)cc12
GI50 (MOLT-4 leukemia): 629 nM
TGI (MOLT-4 leukemia): 2690 nM
GI50 (UO-31 renal): 11500 nM
TGI (UO-31 renal): 45900 nM
GI50 (HOP-62 NSCLC): 2030 nM
TGI (HOP-62 NSCLC): 3950 nM
GI50 (KM12 colon): 1950 nM
TGI (KM12 colon): 4120 nM
GI50 (CCRF-CEM leukemia): 812 nM
TGI (CCRF-CEM leukemia): 6130 nM
GI50 (NCI/ADR-RES ovarian): > 100000 nM
TGI (NCI/ADR-RES ovarian): > 100000 nM
GI50 (SNB-19 CNS): 2680 nM
TGI (SNB-19 CNS): 8420 nM
GI50 (EKVX NSCLC): 2370 nM
TGI (EKVX NSCLC): 7060 nM
GI50 (RPMI-8226 leukemia): 2190 nM
TGI (RPMI-8226 leukemia): 6370 nM
GI50 (UACC-257 melanoma): 1790 nM
TGI (UACC-257 melanoma): 3560 nM
GI50 (LOX IMVI melanoma): 1090 nM
TGI (LOX IMVI melanoma): 2300 nM
GI50 (K-562 leukemia): 1260 nM
TGI (K-562 leukemia): 6470 nM
GI50 (SF-268 CNS): 1630 nM
TGI (SF-268 CNS): 5150 nM
GI50 (HOP-92 NSCLC): 1930 nM
TGI (HOP-92 NSCLC): 4450 nM
GI50 (BT-549 breast): 28.8 nM
TGI (BT-549 breast): 2230 nM
GI50 (SK-MEL-5 melanoma): 1700 nM
TGI (SK-MEL-5 melanoma): 3090 nM
GI50 (HCC-2998 colon): 1820 nM
TGI (HCC-2998 colon): 3890 nM
GI50 (HCT-116 colon): 166 nM
TGI (HCT-116 colon): 369 nM
GI50 (MDA-MB-468 breast): 1750 nM
TGI (MDA-MB-468 breast): 3460 nM
GI50 (U251 CNS): 1710 nM
TGI (U251 CNS): 3390 nM
GI50 (HCT-15 colon): 6130 nM
TGI (HCT-15 colon): 45500 nM
GI50 (MCF7 breast): 2010 nM
TGI (MCF7 breast): 4710 nM
GI50 (T-47D breast): 1960 nM
TGI (T-47D breast): 4570 nM
GI50 (SF-295 CNS): 1630 nM
TGI (SF-295 CNS): 3200 nM
GI50 (COLO 205 colon): 1830 nM
TGI (COLO 205 colon): 3310 nM
GI50 (NCI-H226 lung): 1980 nM
TGI (NCI-H226 lung): 3860 nM
GI50 (SK-OV-3 ovarian): 2080 nM
TGI (SK-OV-3 ovarian): 4290 nM
GI50 (ACHN renal): 2940 nM
TGI (ACHN renal): 9120 nM
GI50 (MALME-3M melanoma): 1640 nM
TGI (MALME-3M melanoma): 3030 nM
GI50 (SNB-75 CNS): 1330 nM
TGI (SNB-75 CNS): 2840 nM
GI50 (SK-MEL-2 melanoma): 1970 nM
TGI (SK-MEL-2 melanoma): 4270 nM
GI50 (HS 578T breast): 2250 nM
TGI (HS 578T breast): 6710 nM
GI50 (A549 NSCLC): 2060 nM
TGI (A549 NSCLC): 5000 nM
GI50 (UACC-62 melanoma): 1850 nM
TGI (UACC-62 melanoma): 3770 nM
GI50 (IGROV1 ovarian): 1880 nM
TGI (IGROV1 ovarian): 3920 nM
GI50 (TK-10 renal): 2460 nM
TGI (TK-10 renal): 7790 nM
GI50 (OVCAR-4 ovarian): 1900 nM
TGI (OVCAR-4 ovarian): 4100 nM
GI50 (HT29 colon): 1860 nM
TGI (HT29 colon): 3780 nM
GI50 (CAKI-1 renal): 2050 nM
TGI (CAKI-1 renal): 4300 nM
GI50 (OVCAR-5 ovarian): 1820 nM
TGI (OVCAR-5 ovarian): 3890 nM
GI50 (SW-620 colon): 1460 nM
TGI (SW-620 colon): 3060 nM
GI50 (MDA-MB-231 breast): 1810 nM
TGI (MDA-MB-231 breast): 3350 nM
GI50 (M14 melanoma): 231 nM
TGI (M14 melanoma): 634 nM
GI50 (OVCAR-3 ovarian): 1080 nM
TGI (OVCAR-3 ovarian): 3130 nM
GI50 (OVCAR-8 ovarian): 2340 nM
TGI (OVCAR-8 ovarian): 5420 nM
GI50 (DU-145 prostate): 3070 nM
TGI (DU-145 prostate): 9520 nM
GI50 (SF-539 CNS): 1660 nM
TGI (SF-539 CNS): 3120 nM
GI50 (NCI-H460 lung): 1600 nM
TGI (NCI-H460 lung): 3540 nM
GI50 (PC-3 prostate): 1150 nM
TGI (PC-3 prostate): 3440 nM
GI50 (HL-60(TB) leukemia): 2020 nM
TGI (HL-60(TB) leukemia): 4660 nM
GI50 (NCI-H522 lung): 1810 nM
TGI (NCI-H522 lung): 3620 nM
GI50 (RXF 393 renal): 1520 nM
TGI (RXF 393 renal): 3040 nM
GI50 (SR leukemia): 2550 nM
TGI (SR leukemia): 7980 nM
GI50 (NCI-H23 lung): 1990 nM
TGI (NCI-H23 lung): 3990 nM
TGI (786-0 renal): 920 nM
GI50 (SN12C renal): 1820 nM
TGI (SN12C renal): 3450 nM
GI50 (A498 renal): 1560 nM
TGI (A498 renal): 3790 nM
GI50 (SK-MEL-28 melanoma): 1830 nM
TGI (SK-MEL-28 melanoma): 3430 nM
GI50 (MDA-MB-435): 1550 nM
TGI (MDA-MB-435): 3250 nM
